Results as given in patent USRE48461E1, “Modulation of androgen receptor expression” (Ionis Pharmaceuticals, Inc., priority 2012, dated 2021).

Key:
Type in all cases: cell-based, human
[1] = test system: prostate-specific antigen (PSA) mRNA; experiment: PSA mRNA levels in LMR20 cells; details: for PSA mRNA levels (% baseline value) after treatment with DHT / PSA mRNA levels (% baseline value) after treatment with R1881 / PSA mRNA levels (% baseline value) of cells without AR agonist treatment: LMR20 cells; for PSA mRNA levels (% baseline value) after treatment with DHT: DHT 10 nM 72 hrs; for PSA mRNA levels (% baseline value) after treatment with R1881: R1881 10 nM 72 hrs; for PSA mRNA levels (% baseline value) of cells without AR agonist treatment: no AR agonist
Experimental: LMR20 cells were plated at 1,500 cells per well in phenol red-free medium with CSS. […] Results are presented in Tables 43-45 as mRNA levels expressed as a percentage of the baseline values. mRNA levels may be lowered or increased after treatment.

[2] = test system: prostate-specific antigen (PSA) mRNA; experiment: Time-course PSA expression in C4-2B cells
Experimental: C4-2B cells were plated at 1,000 cells per well in complete medium. […] ISIS 549148 was included as a negative control. […] After a treatment period of 8 hours, 24 hours, and 48 hours, AR expression was measured with primer probe set hAR-LTS00943. Results are presented in Tables 70-72 as percent expression of AR, relative to non-treated cells.
Expression analysis of prostate-specific antigen (PSA) and TMPRSS2 were also analyzed. Results are presented in Tables 73-75 as percent inhibition of PSA expression and Tables 76-78 as percent inhibition of TMPRSS2 expression, relative to non-treated cells.

LNCaP cells = experiment: LNCaP cell proliferation (complete or CSS+DHT medium); details: 5 days; for Proliferation (% untreated control) in LNCaP cells cultured in CSS + DHT medium: CSS + 1 nM DHT medium
Experimental: After a treatment period of 5 days in complete medium or CSS+1 nM DHT medium, the proliferative capacity of the cancer cells was measured with using CellTiter 96® AQueous One Solution or CellTiter-Glo® solution Cell Proliferation kit (Promega), following the manufacturer's instructions. […] Treatment with ISIS oligonucleotides in CSS+DHT medium reduced the proliferative capacity to a greater extent than treatment with MVD-3100. The proliferative capacity of cells cultured in CSS medium without DHT is 17% of untreated control levels.

AR mRNA = experiment: AR RNA expression in C4-2B cells (complete, CSS+DHT medium; Example 30); details: 48 hrs
Experimental: (§1) Cells were plated at 1,000 cells per well. […] ISIS 549148 was included as a negative control. […] After an incubation period of 48 hrs, RNA levels of AR, PSA and TMPRSS2 were measured.
(§2) Cells were plated at 2,000 cells per well and cultured in CSS media with 1 nM DHT. […] ISIS 549148 was included as a negative control. […] After an incubation period of 48 hrs, RNA levels of AR, PSA and TMPRSS2 were measured. In the absence of DHT, AR expression in C4-2 cells was 188%, PSA expression was 43% and TMPRSS2 expression was 27% compared to the untreated control.

TMPRSS2 mRNA [3] = experiment: TMPRSS2 expression in C4-2B cells (Example 30); details: 48 hrs
Experimental: as §1, §2

TMPRSS2 mRNA [4] = experiment: TMPRSS2 expression in 22RV1 cells; details: 48 hrs
Experimental: Cells were plated at 1,000 cells per well. […] After an incubation period of 48 hrs, RNA levels of full length AR, the V7 variant, PSA and TMPRSS2 were measured.
After an incubation period of 48 hrs, RNA levels of full length AR, the V7 variant, PSA and TMPRSS2 were measured.
Cells were plated at 2,000 cells per well and cultured in CSS media for 16 hours. […] After 4 hrs, 1 nM DHT was added. […] After an incubation period of 48 hrs, RNA levels of AR, AR V7 variant, PSA and TMPRSS2 were measured.

CNC(=O)c1ccc(N2C(=S)N(c3ccc(C#N)c(C(F)(F)F)c3)C(=O)C2(C)C)cc1F [MDV3100, 4-(3-(4-cyano-3-(trifluoromethyl)phenyl)-5,5-dimethyl-4-oxo-2-thioxoimidazolidin-1-yl)-2-fluoro-N-methylbenzamide, reference compound]
PSA mRNA levels (% baseline value) after treatment with DHT ([1]; ASO 0.04 μM): 124 % baseline value | PSA mRNA levels (% baseline value) after treatment with DHT ([1]; ASO 0.20 μM): 108 % baseline value | PSA mRNA levels (% baseline value) after treatment with DHT ([1]; ASO 1.0 μM): 95 % baseline value | PSA mRNA levels (% baseline value) after treatment with DHT ([1]; ASO 5.0 μM): 95 % baseline value | PSA mRNA levels (% baseline value) after treatment with R1881 ([1]; ASO 0.04 μM): 84 % baseline value | PSA mRNA levels (% baseline value) after treatment with R1881 ([1]; ASO 0.20 μM): 101 % baseline value | PSA mRNA levels (% baseline value) after treatment with R1881 ([1]; ASO 1.0 μM): 92 % baseline value | PSA mRNA levels (% baseline value) after treatment with R1881 ([1]; ASO 5.0 μM): 87 % baseline value | PSA mRNA levels (% baseline value) of cells without AR agonist treatment ([1]; ASO 0.04 μM): 98 % baseline value | PSA mRNA levels (% baseline value) of cells without AR agonist treatment ([1]; ASO 0.20 μM): 93 % baseline value | PSA mRNA levels (% baseline value) of cells without AR agonist treatment ([1]; ASO 1.0 μM): 90 % baseline value | PSA mRNA levels (% baseline value) of cells without AR agonist treatment ([1]; ASO 5.0 μM): 113 % baseline value | PSA mRNA levels in LMR20 cells ([1]; with or without DHT/R1881): did not reduce either PSA or TMPRSS2 mRNA levels | Percent inhibition of PSA expression compared to the control group in 8 hours ([2]; 0.04 μM): 0% | Percent inhibition of PSA expression compared to the control group in 24 hours ([2]; 0.04 μM): 24% | Percent inhibition of PSA expression compared to the control group in 48 hours ([2]; 0.04 μM): 5% | Percent inhibition of PSA expression compared to the control group in 8 hours ([2]; 0.2 μM): 3% | Percent inhibition of PSA expression compared to the control group in 24 hours ([2]; 0.2 μM): 24% | Percent inhibition of PSA expression compared to the control group in 48 hours ([2]; 0.2 μM): 5% | Percent inhibition of PSA expression compared to the control group in 8 hours ([2]; 1 μM): 23% | Percent inhibition of PSA expression compared to the control group in 24 hours ([2]; 1 μM): 53% | Percent inhibition of PSA expression compared to the control group in 48 hours ([2]; 1 μM): 32% | Percent inhibition of PSA expression compared to the control group in 8 hours ([2]; 5.0 μM): 33% | Percent inhibition of PSA expression compared to the control group in 24 hours ([2]; 5.0 μM): 65% | Percent inhibition of PSA expression compared to the control group in 48 hours ([2]; 5.0 μM): 63% | PSA expression ([2]; time course): also reduced downstream gene expressions but not as potently as that with the ISIS oligonucleotides | Proliferation (% untreated control) in LNCaP cells cultured in CSS + DHT medium (LNCaP cells; 0.04 μM): 112 % untreated control | Proliferation (% untreated control) in LNCaP cells cultured in CSS + DHT medium (LNCaP cells; 0.2 μM): 95 % untreated control | Proliferation (% untreated control) in LNCaP cells cultured in CSS + DHT medium (LNCaP cells; 1 μM): 74 % untreated control | Proliferation (% untreated control) in LNCaP cells cultured in CSS + DHT medium (LNCaP cells; 5.0 μM): 33 % untreated control | proliferation of LNCaP cells (LNCaP cells; complete medium or CSS+1 nM DHT): reduced proliferation of the cells in a dose dependent compared to the control | Proliferation (% untreated control) in LNCaP cells cultured in complete medium (LNCaP cells; 0.04 μM): 107 % untreated control | Proliferation (% untreated control) in LNCaP cells cultured in complete medium (LNCaP cells; 0.2 μM): 88 % untreated control | Proliferation (% untreated control) in LNCaP cells cultured in complete medium (LNCaP cells; 1 μM): 65 % untreated control | Proliferation (% untreated control) in LNCaP cells cultured in complete medium (LNCaP cells; 5.0 μM): 45 % untreated control | Percent expression of AR (AR mRNA; CSS + DHT medium, 0.04 μM): 112% | Percent expression of AR (AR mRNA; CSS + DHT medium, 0.2 μM): 144% | Percent expression of AR (AR mRNA; CSS + DHT medium, 1 μM): 165% | Percent expression of AR (AR mRNA; CSS + DHT medium, 5.0 μM): 173% | AR expression (AR mRNA; CSS+DHT medium): increased AR expression in the cells | Percent expression of AR (AR mRNA; complete medium, 0.04 μM): 108% | Percent expression of AR (AR mRNA; complete medium, 0.2 μM): 121% | Percent expression of AR (AR mRNA; complete medium, 1 μM): 157% | Percent expression of AR (AR mRNA; complete medium, 5.0 μM): 182% | AR expression (AR mRNA; complete medium): increased AR expression in the cells | Percent inhibition of TMPRSS2 expression (TMPRSS2 mRNA [3]; CSS + DHT medium, 0.04 μM): 0% | Percent inhibition of TMPRSS2 expression (TMPRSS2 mRNA [3]; CSS + DHT medium, 0.2 μM): 11% | Percent inhibition of TMPRSS2 expression (TMPRSS2 mRNA [3]; CSS + DHT medium, 1 μM): 48% | Percent inhibition of TMPRSS2 expression (TMPRSS2 mRNA [3]; CSS + DHT medium, 5.0 μM): 66% | Percent inhibition of TMPRSS2 expression (TMPRSS2 mRNA [3]; complete medium, 0.04 μM): 3% | Percent inhibition of TMPRSS2 expression (TMPRSS2 mRNA [3]; complete medium, 0.2 μM): 24% | Percent inhibition of TMPRSS2 expression (TMPRSS2 mRNA [3]; complete medium, 1 μM): 55% | Percent inhibition of TMPRSS2 expression (TMPRSS2 mRNA [3]; complete medium, 5.0 μM): 71% | Percent of gene expression, TMPRSS2 (TMPRSS2 mRNA [4]; CSS + DHT medium, 0.04 μM): 17% | Percent of gene expression, TMPRSS2 (TMPRSS2 mRNA [4]; CSS + DHT medium, 0.2 μM): 9% | Percent of gene expression, TMPRSS2 (TMPRSS2 mRNA [4]; CSS + DHT medium, 1.0 μM): 26% | Percent of gene expression, TMPRSS2 (TMPRSS2 mRNA [4]; CSS + DHT medium, 5.0 μM): 18% | Percent of gene expression, TMPRSS2 (TMPRSS2 mRNA [4]; complete medium, 0.04 μM): 101% | Percent of gene expression, TMPRSS2 (TMPRSS2 mRNA [4]; complete medium, 0.2 μM): 80% | Percent of gene expression, TMPRSS2 (TMPRSS2 mRNA [4]; complete medium, 1.0 μM): 82% | Percent of gene expression, TMPRSS2 (TMPRSS2 mRNA [4]; complete medium, 5.0 μM): 93%
